Earlier results, collected in PMC10089180 (Proceedings of the National Academy of Sciences of the …, 2023).
Blank lines part the entries; values can stand above or below the molecule they belong to.

Columns and labels:
[1] = no reference given
chemerin receptor = conditions: Y1 missing or substituted by alanine; ref [17]
FPR1 [2] = conditions: ref [38]
FPR1 [3] = conditions: tripeptide; ref [26], [27]
[4] = ref [15], [16]

Molecule: Asp-Arg-Val-Tyr-Ile-His-Pro-Phe [AngII]
- chemotactic activity [1]: does not display chemotactic activity

- reduced activity in functional assays (chemerin receptor): ~ 30%
Molecule: Y1 missing: C9 when Y1 was missing (FPGQFAFS; UniProt Q99969 150-157, looked up, fragment)

- dissociation constant (FPR1 [2]): low nanomolar range
Molecule: fMLF
- agonistic activity at FPR1 (FPR1 [3]): full agonistic activity

B1: prochemerin (21-163): Removal of the N-terminal signal peptide results in prochemerin (21-163) (protein, UniProt Q99969 21-163, looked up)
pro-form: ELTEAQRRGLQVALEEFHKHPPVQWAFQETSVESAVDTPFPAGIFVRLEFKLQQTSCRKRDWKKPECKVRPNGRKRKCLACIKLGSEDKVLGRLVHCPIETQVLREAEEHQETQCLRVQRAGEDPHSFYFPGQFAFSKALPRS
modifications: pro-form
- chemotactic activity / bioactivity of chemerin form [4]: low bioactivity

B2: Pre-prochemerin: 163-amino acid protein without chemotactic activity (protein, UniProt Q99969 1-163, looked up)
chain: MRRLLIPLALWLGAVGVGVAELTEAQRRGLQVALEEFHKHPPVQWAFQETSVESAVDTPFPAGIFVRLEFKLQQTSCRKRDWKKPECKVRPNGRKRKCLACIKLGSEDKVLGRLVHCPIETQVLREAEEHQETQCLRVQRAGEDPHSFYFPGQFAFSKALPRS
modifications: full-length
- chemotactic activity / bioactivity of chemerin form [4]: without chemotactic activity
